Source: ChEMBL document CHEMBL3808279, “Sequential one-pot synthesis of bis(indolyl)glyoxylamides: Evaluation of antibacterial and anticancer activities” (Bioorg Med Chem Lett, 2016)
Values after ≈ are worked out from the molar mass of the structure shown. Active and inactive are the calls of the source. The rule behind the calls is not given here.

Tests used:
Pseudomonas putida [1] = test: Antibacterial activity against Pseudomonas putida after 18 to 24 hrs by microbroth dilution method; assay type: functional; conditions: for MIC: Pseudomonas putida
[2] = Cytotoxicity against human PC3 cells after 48 hrs by MTT assay; assay type: functional, cell-based; conditions: PC-3, 48 h
HeLa = test: Cytotoxicity against human HeLa cells after 48 hrs by MTT assay; assay type: functional, cell-based
[3] = Cytotoxicity against human HEK293T cells after 48 hrs by MTT assay; assay type: cell-based; conditions: HEK-293T
MDA-MB-231 = test: Cytotoxicity against human MDA-MB-231 cells after 48 hrs by MTT assay; assay type: functional, cell-based; conditions: MDA-MB-231, 48 h
Klebsiella pneumoniae = test: Antibacterial activity against Klebsiella pneumoniae after 18 to 24 hrs by microbroth dilution method; assay type: functional; conditions: for MIC: Klebsiella pneumoniae
Escherichia coli [4] = test: Antibacterial activity against Escherichia coli after 18 to 24 hrs by microbroth dilution method; assay type: functional; conditions: for MIC: Escherichia coli
[5] = Cytotoxicity against human BxPC3 cells after 48 hrs by MTT assay; assay type: functional, cell-based; conditions: BXPC-3, 48 h
Staphylococcus aureus [6] = test: Antibacterial activity against Staphylococcus aureus after 18 to 24 hrs by microbroth dilution method; assay type: functional; conditions: for MIC: Staphylococcus aureus
[7] = Cytotoxicity against human C4-2 cells after 48 hrs by MTT assay; assay type: functional, cell-based; conditions: LNCaP C4-2, 48 h
Bacillus subtilis [8] = test: Antibacterial activity against Bacillus subtilis after 18 to 24 hrs by microbroth dilution method; assay type: functional; conditions: for MIC: Bacillus subtilis
Escherichia coli [9] = test: Bactericidal activity against Escherichia coli assessed as maximum bactericidal reduction at 3 times MIC after 3 hrs by time-kill analysis; assay type: functional, organism-based
Pseudomonas putida [10] = test: Bactericidal activity against Pseudomonas putida assessed as maximum bactericidal reduction at 3 times MIC after 3 hrs by time-kill analysis; assay type: functional, organism-based
Bacillus subtilis [11] = test: Bactericidal activity against Bacillus subtilis at 3 times MIC after 2 hrs by time-kill analysis; assay type: functional
Pseudomonas putida [12] = test: Bactericidal activity against Pseudomonas putida at 3 times MIC after 2 hrs by time-kill analysis; assay type: functional
[13] = Stability of compound at pH 7.4 up to 48 hrs by HPLC analysis; assay type: physicochemical; conditions: buffer, pH 7.4, 48 h
Staphylococcus aureus [14] = test: Bactericidal activity against Staphylococcus aureus at 3 times MIC after 2 hrs by time-kill analysis; assay type: functional
[15] = Stability of compound at pH 4.5 up to 48 hrs by HPLC analysis; assay type: physicochemical; conditions: buffer, pH 4.5, 48 h
Escherichia coli [16] = test: Bactericidal activity against Escherichia coli at 3 times MIC after 2 hrs by time-kill analysis; assay type: functional

SMILES	inhibition zone (IZ) (Pseudomonas putida [1]) [mm]	MIC (Pseudomonas putida [1]) [µg/mL]	IC50 [2] [µM]	IC50 (HeLa) [µM]	IC50 [3] [µM]	IC50 (MDA-MB-231) [µM]	inhibition zone (IZ) (Klebsiella pneumoniae) [mm]	MIC (Klebsiella pneumoniae) [µg/mL]	inhibition zone (IZ) (Escherichia coli [4]) [mm]	MIC (Escherichia coli [4]) [µg/mL]	IC50 [5] [µM]	inhibition zone (IZ) (Staphylococcus aureus [6]) [mm]	MIC (Staphylococcus aureus [6]) [µg/mL]	IC50 [7] [µM]	inhibition zone (IZ) (Bacillus subtilis [8]) [mm]	MIC (Bacillus subtilis [8]) [µg/mL]	other results
O=C(NCCc1c[nH]c2ccccc12)C(=O)c1cn(Cc2ccc(Cl)cc2)c2ccc(F)cc12	14	100 (≈ 211 µM)	> 100	> 100	> 100	> 100	12	> 100	14	100 (≈ 211 µM)	> 100	13	100 (≈ 211 µM)	> 100	13	> 50	
COc1ccc2c(C(=O)C(=O)NCCc3c[nH]c4ccccc34)cn(Cc3ccc(Cl)cc3)c2c1	16	50 (≈ 103 µM)	> 100	> 100	> 100	> 100	15	> 50	15	50 (≈ 103 µM)	> 100			> 100			
O=C(NCCc1c[nH]c2ccccc12)C(=O)c1cn(Cc2ccc(Cl)cc2)c2ccc(Br)cc12	14	> 100	> 100	> 100	> 100	> 100	14	> 50	15	100 (≈ 187 µM)	> 100	13	100 (≈ 187 µM)	> 100	14	100 (≈ 187 µM)	
O=C(NCCc1c[nH]c2ccccc12)C(=O)c1cn(Cc2ccc(F)cc2)c2ccccc12	15	100 (≈ 228 µM)	> 100	> 100	> 100	> 100	13	> 100	15	100 (≈ 228 µM)	> 100	14	> 100	> 100	12	> 100	
COc1ccc2[nH]cc(C(=O)C(=O)CCCc3c[nH]c4ccccc34)c2c1	15	100 (≈ 277 µM)	> 100	> 100	> 100	> 100	15	50 (≈ 139 µM)	15	100 (≈ 277 µM)	> 100			> 100			
O=C(NCCc1c[nH]c2ccccc12)C(=O)c1c[nH]c2ccc(Br)cc12	14	100 (≈ 244 µM)	> 100	> 100	> 100	> 100	15	100 (≈ 244 µM)	16	50 (≈ 122 µM)	> 100	15	> 100	> 100	14	100 (≈ 244 µM)	
Cn1cc(C(=O)C(=O)NCCc2c[nH]c3ccccc23)c2ccccc21	17	> 25	> 100	> 100	> 100	> 100	17	25 (≈ 72.4 µM)	18	12.5 (≈ 36.2 µM)	> 100	16	50 (≈ 145 µM)	> 100	18	> 25	Activity (Escherichia coli [9]): Active; Activity (Pseudomonas putida [10]): Active; Activity (Bacillus subtilis [11]): >80%; Activity (Pseudomonas putida [12]): 80%; Stability [13]: Stable; Activity (Staphylococcus aureus [14]): >65%; Stability [15]: Stable; Activity (Escherichia coli [16]): 80%
O=C(N[C@H](CO)[C@H](O)c1ccc([N+](=O)[O-])cc1)C(Cl)Cl [CHLORAMPHENICOL]	21						20		22			21			22		
CCn1cc(C(=O)C(=O)NCCc2c[nH]c3ccccc23)c2ccccc21	12	> 100	> 100	> 100	> 100	> 100	13	> 100	14	> 50	> 100	14	100 (≈ 278 µM)	> 100	14	100 (≈ 278 µM)	
COc1cccc2c1C(=O)c1c(O)c3c(c(O)c1C2=O)C[C@@](O)(C(=O)CO)C[C@@H]3O[C@H]1C[C@H](N)[C@H](O)[C@H](C)O1 [DOXORUBICIN]			9.5		3.1						13			1.85			
COc1ccc2c(C(=O)C(=O)NCCc3c[nH]c4ccccc34)c[nH]c2c1	15	> 50	> 100	> 100	> 100	> 100	15	100 (≈ 277 µM)	14	> 50	> 100	14	100 (≈ 277 µM)	> 100	15	> 100	
COc1ccc2c(c1)c(C(=O)C(=O)NCCc1c[nH]c3ccccc13)cn2Cc1ccc(Cl)cc1	15	50 (≈ 103 µM)	> 100	> 100	> 100	> 100			13	> 100	> 100			> 100			
O=C(NCCc1c[nH]c2ccccc12)C(=O)c1cn(Cc2ccc(Cl)cc2)c2ccccc12	18	12.5 (≈ 27.4 µM)	> 100	> 100	> 100	> 100	18	> 12.5	18	12.5 (≈ 27.4 µM)	> 100	17	> 25	> 100	17	> 25	Activity (Escherichia coli [9]): Active; Activity (Pseudomonas putida [10]): Active; Activity (Bacillus subtilis [11]): >80%; Activity (Pseudomonas putida [12]): 80%; Stability [13]: Stable; Activity (Staphylococcus aureus [14]): >65%; Stability [15]: Stable; Activity (Escherichia coli [16]): 80%
